Where a SMILES comes first, the peptide text is derived from it. Where no end group is shown, it is not given here. [ ]: non-standard residue; d: D form.
What was measured:
[1] = test system: cardiac myocytes isolated from neonatal Sprague-Dawley rat ventricles; assay: Norepinephrine-induced cardiomyocyte hypertrophy, western blot of β-MHC and ANP; format: cell-based; details: 1, 10 or 100 μM peptide, 10 μM norepinephrine
Description: Cardiac myocytes were isolated from neonatal Sprague-Dawley rat ventricles. Cardiac myocytes were plated at 70% final density in gelatin-coated wells (12-well plates) or in 60-mm Petri dishes and maintained at 37° C. in a humidified atmosphere of 5% CO2/95% air for 24 h in Dulbecco's Modified Eagle's medium [(DMEM)/M199](4:1) containing 10% fetal bovine serum and 5% fetal calf serum. Serum was withdrawn 24 h before preincubation with 1, 10 or 100 μM retro-inverse angiotensin-(1-9) for 1 h; then, 10 μM norepinephrine (Sigma, St Louis, Missouri, USA) were added and the cultures were incubated for 24 h. Then cells were washed with PBS at 4° C. and then cells were lysed with 50 μL of RIPA lysis buffer (Tris-HCl 10 mM pH 7.4, EDTA 5 mM, NaCl 50 mM, deoxycholic acid 1%, Triton X-100 1% v/v) supplemented with phosphatase and protease inhibitors (Roche). After centrifugation at 12,000 r.p.m. for 15 min at 4° C., the supernatat was recovered; total protein content was determined by using Bradford (BioRad protein assay, BioRad, Hercules, CA, USA). Proteins were denatured in SDS-PAGE 4× buffer and resolved in 12% PAGE-SDS. After electrotransference, beta-myosin heavy chain (β-MHC) and atrial natriuretic peptide (ANP) were used as hypertrophic markers. β-tubulin was used as loading control. As expected, norepinephrine 10 μM for […], a cardiomyocyte hypertrophy inducer, triggered β-MHC and ANP increase (FIG. 3).

[2] = Stability in human serum determined by HPLC; format: in vitro ADME; details: 37° C.
Description: The retro-inverse peptides were dissolved in PBS to obtain a final concentration of 1 mM. From this stock, an aliquot of 50 μL was taken and diluted to 450 μL of human serum (Sigma Aldrich from human male AB plasma, USA origin, sterile-filtered) at 37° C. under agitation, to obtain an initial concentration of […] and incubated for 48 h. Aliquots of 50 μL were extracted at 0, 5, 10 min and 1, 3, 6, 24 and 48 h and added to 200 μL of methanol at 4° C. for 30 min to precipitate serum proteins. The samples were then centrifuged at 13,000 g in Hermle Cooling Centrifuge Z 326 K 311.00 V01 at 4° C. for 30 min. The supernatants (approximately 200 μL) were obtained, placed in vials, and then analyzed by HPLC. All analyzes were performed on the Perkin Elmer auto sampler flexo HPLC, using a reverse phase 4.6×100 mm column with a particle size of […] (Waters XBridge Peptide BEH C18 Column). Mobile phase A was 100% acetonitrile and phase B was TFA 0.0004% in Milli-Q water. The initial composition of eluent was 5% A and 95% B for 1 min and then a linear gradient to reach 100% A in 19 min and then return to the initial composition in 4 min, with a total run time of 25 min. The eluent flow was 0.9 mL/min and the temperature of the column was adjusted to 26° C. L measurement was performed at a UV signal of 220 nm wavelength. Where 50 μL was injected per sample. Peptides were identified based on their retention time in the respective chromatogram obtained in the Chromera-HPLC flexar program.

[3] = test system: adult rat cardiac fibroblasts; assay: Cardiac fibroblast proliferation, cell count in Neubauer chamber; format: cell-based; details: DMEM F-12 5% FBS, 24 h, trypan blue cell count
Description: Male Sprague-Dawley rats (250-300 g) were anesthetized with ketamine-xylazine (66 and 1.6 mg/kg i.p., respectively). Adult rat cardiac fibroblasts were isolated by retrograde aortic perfusion. Briefly, hearts were digested with collagenase type B solution for 1 h, and cells were centrifuged at 500 rpm for 2 min. The supernatant, mainly adult rat cardiac fibroblasts, was centrifuged at 1000 rpm for 10 min, resuspended in Dulbecco's Modified Eagle Medium: Nutrient Mixture F-12 (DMEM F-12) plus 15% fetal bovine serum (FBS) and then seeded in nontreated culture dishes during 3 h. Cells were washed with phosphate buffered saline to eliminate debris and nonadherent cells. Adult rat cardiac fibroblasts were used at passage one and seeded on 60 mm cell culture dishes in DMEM F-12 plus 10% FBS and incubated at […] for 3 h. To synchronize cells, they were washed and incubated in DMEM F-12 (without serum, 0% FBS) for 24 h before experimentation. Cell proliferation was determined in cardiac fibroblasts incubated for 24 h with and without retro-inverse angiotensin-(1-9) in DMEM F-12 5% FBS. Cells were trypsinized and cell number was determined using trypan blue method in a Neubauer chamber.

## CC[C@@H](C)[C@@H](NC(=O)[C@@H](Cc1c[nH]cn1)NC(=O)[C@H]1CCCN1C(=O)[C@@H](Cc1ccccc1)NC(=O)[C@H](N)Cc1c[nH]cn1)C(=O)N[C@H](Cc1ccc(O)cc1)C(=O)N[C@@H](C(=O)N[C@H](CCCNC(=N)N)C(=O)N[C@H](CC(=O)O)C(N)=O)C(C)C [retro-inverse angiotensin-(1-9) amide, ^DH^DF^DP^DH^DI^DY^DV^DR^DD-CONH2] (H-[dH][dF][dP][dH][dI][dY][dV][dR][dD]-NH2)
[1]
  increase of ANP induced by norepinephrine: blocked
[2]; 24 h incubation
  degradation after incubation with human serum: no significant degradation

## O=c1[nH]c(=O)n([C@H]2C[C@H](O)[C@@H](CO)O2)cc1Br [bromodeoxyuridine, reference compound]
[3]
  fibroblast proliferation: comparable to bromodeoxyuridine

## DRVYIHPFH [angiotensin-(1-9), Asp-Arg-Val-Tyr-Ile-His-Pro-Phe-His]
[2]; 3 h incubation
  degradation after incubation with human serum: completely degraded
